Assay results reported in patent US8937067B2, “Activators of human pyruvate kinase” (The United States of America, as represented by the …, priority 2008, dated 2015).
Where two headings read alike, the source gives them in different places.

Molecular target: hPK-M2 (Homo sapiens, UniProt P14618)
Assay: Luminescent pyruvate kinase-luciferase coupled assay (KinaseGlo)
Format: biochemical
Conditions: for activation at 57 µM / hPK, M2 Max. Res.: KinaseGlo, % activation at 57 μM of compound; for activation at 57 µM: read-out: hPK, M2 Max. Res.
Procedure: Luminescent Pyruvate Kinase-Luciferase Coupled Assay.
Production of a luminescent signal based on the generation of ATP by pyruvate kinase was determined by using the ATP-dependent enzyme firefly luciferase. Three μL of substrate mix (at r.t.) in assay buffer (50 mM imidazole pH 7.2, 50 mM KCl, 7 mM MgCl2, 0.01% tween 20, 0.05% BSA) was dispensed into Kalypsys white solid bottom 1,536 well microtiter plates using a bottle-valve solenoid-based dispenser (Kalypsys). The final concentrations of substrates in the assay were 0.1 mM ADP and 0.5 mM PEP. […] Microtiter plates were incubated at r.t. for 1 hour and 2 uL of luciferase detection mix (Kinase-Glo, Promega at 4° C. protected from light) was added and luminescence was read with a ViewLux (Perkin Elmer) using a 5 second exposure/plate. Data was normalized for AC50 values to control columns containing uninhibited enzyme (n), and AC100 inhibition (i) according the following equation: Activation (%)=[(c−n)/(n−i)]*100 where c=compound, n=DMSO neutral, i=no enzyme control. […] Monitoring of activation was accomplished using enzyme at 3× the final concentration.

[1] = luminescent pyruvate kinase-luciferase coupled assay (KinaseGlo), tables, read-out: hPK, M2 AC50
[2] = luciferase-coupled assay, read-out: AC50

Chain of hPK-M2 (P14618 whole entry): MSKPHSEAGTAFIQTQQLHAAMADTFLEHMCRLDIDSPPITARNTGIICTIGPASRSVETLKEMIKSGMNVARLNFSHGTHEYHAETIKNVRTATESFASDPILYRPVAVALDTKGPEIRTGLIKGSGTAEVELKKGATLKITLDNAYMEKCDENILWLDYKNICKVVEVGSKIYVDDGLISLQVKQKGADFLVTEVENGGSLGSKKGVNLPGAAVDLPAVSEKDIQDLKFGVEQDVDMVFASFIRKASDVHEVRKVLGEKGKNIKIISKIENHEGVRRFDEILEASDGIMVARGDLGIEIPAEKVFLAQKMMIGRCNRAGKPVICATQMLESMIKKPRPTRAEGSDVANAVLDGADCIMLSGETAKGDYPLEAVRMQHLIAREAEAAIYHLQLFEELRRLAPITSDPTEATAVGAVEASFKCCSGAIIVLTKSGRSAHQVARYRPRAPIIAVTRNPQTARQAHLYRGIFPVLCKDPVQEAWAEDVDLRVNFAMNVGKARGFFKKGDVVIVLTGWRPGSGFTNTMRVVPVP

| SMILES | activation at 57 µM [%] | AC50 [1] [µM] | also measured |
| --- | --- | --- | --- |
| O=S(=O)(c1cccc(C(F)(F)F)c1)N1CCN(S(=O)(=O)c2ccc3c(c2)OCCO3)CC1 [Compound 16, 1-(2,3-dihydrobenzo[b][1,4]dioxin-6-ylsulfonyl)-4-(3-(trifluoromethyl)phenylsulfonyl)piperazine] | 39.3 ± 6.2 | 0.209 |  |
| O=S(=O)(NCCCCCNS(=O)(=O)c1c(F)cccc1F)c1ccc2c(c1)OCCO2 [Compound 35, N-(5-(2,6-difluorophenylsulfonamido)pentyl)-2,3-dihydrobenzo[b][1,4]dioxine-6-sulfonamide] | 114 ± 1.4 | 2.33 ± 0.16 |  |
| O=S(=O)(NCCCCCCNS(=O)(=O)c1c(F)cccc1F)c1ccc2c(c1)OCCO2 [Compound 36, N-(6-(2,6-difluorophenylsulfonamido)hexyl)-2,3-dihydrobenzo[b][1,4]dioxine-6-sulfonamide] | 110 ± 3 | 4.83 ± 0.31 |  |
| O=S(=O)(NCC1CN(S(=O)(=O)c2ccc3c(c2)OCCO3)C1)c1c(F)cccc1F [Compound 44, N-((1-(2,3-dihydrobenzo[b][1,4]dioxin-6-ylsulfonyl)azetidin-3-yl)methyl)-2,6-difluorobenzenesulfonamide] | 108 ± 5.3 | 3.05 ± 0.2 |  |
| Cc1cc2c(s1)c1cnn(Cc3cccc(C)c3F)c(=O)c1n2C [Compound 118, 2,4-Methyl-6-[(3-methyl-2-fluorophenyl)methyl]-4H-thieno[3,2-b]pyrrole[3,2-d]pyridazinone] | 97.4 ± 6.9 | 0.035 ± 0.01 |  |
| CC(=O)Nc1cc2c(s1)c1cnn(Cc3ccccc3F)c(=O)c1n2C [Compound 81, 2-Acetylamido-4-methyl-6-[(2-fluorophenyl)methyl]-4H-thieno[3,2-b]pyrrole[3,2-d]-pyridazinone] | 58.6 ± 23.5 |  |  |
| O=S(=O)(c1ccc2c(c1)OCCO2)N1CCN(S(=O)(=O)c2c(F)cccc2F)CC1 [Compound 9, 1-(2,6-difluorophenylsulfonyl)-4-(2,3-dihydrobenzo[b][1,4]dioxin-6-ylsulfonyl)piperazine] | 94.4 ± 2.8 |  | AC50 [2]: 0.065 ± 0.025 µM |
| O=S(=O)(c1c(F)cccc1F)C1CCN(S(=O)(=O)c2ccc3c(c2)OCCO3)CC1 [Compound 20, 4-(2,6-difluorophenylsulfonyl)-1-(2,3-dihydrobenzo[b][1,4]dioxin-6-ylsulfonyl)piperidine] | 104 ± 5.1 | 0.254 |  |
| CSc1cc2c(s1)c1cnn(Cc3ccccc3F)c(=O)c1n2C [Compound 72, 2-Methylthio-4-methyl-6-[(2-fluorophenyl)methyl]-4H-thieno[3,2-b]pyrrole[3,2-d]pyridazinone] | 96.3 ± 3.8 | 0.024 ± 0.01 |  |
| O=S(=O)(NC1CCN(S(=O)(=O)c2ccc3c(c2)OCCO3)CC1)c1c(F)cccc1F [Compound 40, N-(1-(2,3-dihydrobenzo[b][1,4]dioxin-6-ylsulfonyl)piperidin-4-yl)-2,6-difluorobenzenesulfonamide] | 99.6 ± 3.1 | 9 ± 4.5 |  |
| C[C@@H]1CN(S(=O)(=O)c2c(F)cccc2F)CCN1S(=O)(=O)c1ccc2c(c1)OCCO2 [Compound 46, (R)-4-(2,6-difluorophenylsulfonyl)-1-(2,3-dihydrobenzo[b][1,4]dioxin-6-ylsulfonyl)-2-methylpiperazine] | 98.8 ± 2.6 | 3.1 ± 1.17 |  |
| Cc1cc2c(s1)c1cnn(Cc3ccc(F)cc3)c(=O)c1n2C [Compound 105, 2,4-Methyl-6-[(4-fluorophenyl)methyl]-4H-thieno[3,2-b]pyrrole[3,2-d]pyridazinone] | 102 ± 8.9 | 0.057 ± 0.02 |  |
| COc1cc2c(s1)c1cnn(Cc3ccccc3F)c(=O)c1n2C [Compound 71, 2-Methoxy-4-methyl-6-[(2-fluorophenyl)methyl]-4H-thieno[3,2-b]pyrrole[3,2-d]pyridazinone] |  | 0.086 ± 0.04 |  |
| C[C@H]1CN(S(=O)(=O)c2ccc3c(c2)OCCO3)CCN1S(=O)(=O)c1c(F)cccc1F [Compound 48, (S)-1-(2,6-difluorophenylsulfonyl)-4-(2,3-dihydrobenzo[b][1,4]dioxin-6-ylsulfonyl)-2-methylpiperazine] | 108 ± 8.4 | 2.96 ± 0.2 |  |
| CCn1c2cc(C)sc2c2cnn(Cc3ccccc3F)c(=O)c21 [Compound 90, 2-Methyl-4-ethyl-6-[(2-fluorophenyl)methyl]-4H-thieno[3,2-b]pyrrole[3,2-d]pyridazinone] |  | 5.9 ± 1.7 | hPK, M2 Max. Res.: 95.6 ± 6.3% |
| Cn1c2cc([N+](=O)[O-])sc2c2cnn(Cc3ccccc3F)c(=O)c21 [Compound 80, 2-Nitro-4-methyl-6-[(2-fluorophenyl)methyl]-4H-thieno[3,2-b]pyrrole[3,2-d]pyridazinone] |  | 0.018 ± 0.01 |  |
| O=S(=O)(c1ccc2c(c1)OCCO2)N1CCN(S(=O)(=O)c2ccccc2F)CC1 [Compound 8, 1-(2,3-dihydrobenzo[b][1,4]dioxin-6-ylsulfonyl)-4-(2-fluorophenylsulfonyl)piperazine] | 114 ± 4 | 0.089 |  |

| SMILES | activation at 57 µM [%] | AC50 [1] [µM] | also measured |
| --- | --- | --- | --- |
| COC(=O)c1cc2c(s1)c1cnn(Cc3ccccc3F)c(=O)c1n2C [Compound 83, Methyl 4-methyl-6-[(2-fluorophenyl)methyl]-4,1-thieno[3,2-b]pyrrole[3,2-d]pyridazinone-2-carboxylate] | 70.4 ± 12.9 | 0.084 ± 0.03 |  |
| O=S(=O)(c1ccc2c(c1)OCCO2)N1CCN(S(=O)(=O)c2cc(F)c(F)cc2F)CC1 [Compound 10, 1-(2,3-dihydrobenzo[b][1,4]dioxin-6-ylsulfonyl)-4-(2,4,5-trifluorophenylsulfonyl)piperazine] | 105 ± 7.6 | 0.09 |  |
| Cc1cc2c(s1)c1cnn(Cc3ccccc3)c(=O)c1n2C [Compound 103, 2,4-Methyl-6-phenylmethyl-4H-thieno[3,2-b]pyrrole[3,2-d]pyridazinone] |  | 0.062 ± 0.02 |  |
| O=C(COP(=O)(O)O)[C@@H](O)[C@H](O)[C@H](O)COP(=O)(O)O [FBP, fructose-1,6-bis-phosphate, reference compound] |  |  | % Activation by FBP (average, 100% is approximately a 2-fold increase over basal signal): 100% |
| CNc1cccc(S(=O)(=O)N2CCN(S(=O)(=O)c3ccc4c(c3)OCCO4)CC2)c1 [Compound 142] |  | 0.29 | hPK, M2 Max. Res.: 67.00% |
| Cn1c2ccsc2c2cnn(Cc3ccccc3F)c(=O)c21 [Compound 70, 4-Methyl-6-[(2-fluorophenyl)methyl]-4H-thieno[3,2-b]pyrrole[3,2-d]pyridazinone] | 93.2 ± 6.6 | 0.605 ± 0.18 |  |
| O=S(=O)(c1ccc2c(c1)OCCO2)C1CCN(S(=O)(=O)c2c(F)cccc2F)CC1 [Compound 30, 1-(2,6-difluorophenylsulfonyl)-4-(2,3-dihydrobenzo[b][1,4]dioxin-6-ylsulfonyl)piperidine] | 110 ± 5.4 | 0.863 |  |
| O=S(=O)(c1ccccc1)N1CCN(S(=O)(=O)c2ccc3c(c2)OCCO3)CC1 [Compound 15, 1-(2,3-dihydrobenzo[b][1,4]dioxin-6-ylsulfonyl)-4-(phenylsulfonyl)piperazine] | 108 ± 4.3 | 0.202 |  |
| CCc1cc2c(s1)c1cnn(Cc3ccccc3F)c(=O)c1n2C [Compound 68, 2-Ethyl-4-methyl-6-[(2-fluorophenyl)methyl]-4H-thieno[3,2-b]pyrrole[3,2-d]pyridazinone] | 105 ± 5.8 | 0.1 ± 0.03 |  |
| Cn1c2cc(C#N)sc2c2cnn(Cc3ccccc3F)c(=O)c21 [Compound 82, 2-Cyano-4-methyl-6-[(2-fluorophenyl)methyl]-4H-thieno[3,2-b]pyrrole[3,2-d]pyridazinone] | 84.1 ± 5.5 | 0.047 ± 0.02 |  |
| Cc1cc2c(s1)c1cnn(Cc3ccccc3F)c(=O)c1n2C [Compound 66, 2,4-Methyl-6-[(2-fluorophenyl)methyl]-4H-thieno[3,2-b]pyrrole[3,2-d]pyridazinone] | 122 ± 6.1 | 0.063 ± 0.02 |  |
| O=S(=O)(c1ccc2c(c1)OCCO2)N1CCN(S(=O)(=O)c2ccc(F)cc2F)CC1 [Compound 14, 1-(2,4-difluorophenylsulfonyl)-4-(2,3-dihydrobenzo[b][1,4]dioxin-6-ylsulfonyl)piperazine] | 113 ± 6.3 | 0.124 |  |
| Cc1cc2c(s1)c1cnn(Cc3cccc(Cl)c3)c(=O)c1n2C [Compound 107, 2,4-Methyl-6-[(3-chlorophenyl)methyl]-4H-thieno[3,2-b]pyrrole[3,2-d]pyridazinone] | 99.1 ± 3.1 | 0.126 ± 0.01 |  |
| O=S(=O)(NCCNS(=O)(=O)c1c(F)cccc1F)c1ccc2c(c1)OCCO2 [Compound 32, N-(2-(2,6-difluorophenylsulfonamido)ethyl)-2,3-dihydrobenzo[b][1,4]dioxine-6-sulfonamide] | 60.3 ± 20.6 |  |  |
| O=S(=O)(c1ccc2c(c1)OCCO2)N1CCN(S(=O)(=O)c2cccc[n+]2[O-])CC1 [Compound 19, 2-(4-(2,3-dihydrobenzo[b][1,4]dioxin-6-ylsulfonyl)piperazin-1-ylsulfonyl)pyridine 1-oxide] | 81.5 ± 3.2 |  | AC50 [2]: 0.254 ± 0.047 µM; Emax (luciferase-coupled assay, relative to activation by FBP, read-out: maximum response): 104% |
| O=S(=O)(c1ccc2c(c1)OCCO2)N1CCN(S(=O)(=O)c2ccc3c(c2)OCCO3)CC1 [Compound 2, 1,4-bis(2,3-dihydrobenzo[b][1,4]dioxin-6-ylsulfonyl)piperazine] | 89.7 ± 2.2 |  | AC50 [2]: 0.27 µM |
